Like-named read-outs stand apart in the source and are kept apart here.
Assays:
H3 receptor = target: T1, H3 receptor (Cavia porcellus, UniProt Q9JI35); assay: H3 Receptor Binding Assay; parameters: species or system guinea pig; conditions: for inhibition at 2 µg/mL: read-out: % inhibition (of specific binding of radioactive ligand)
T1 construct: The source of the H3 receptors in this experiment was guinea pig brain; from tissue; host or cells: guinea pig brain membranes
Protocol: The source of the H3 receptors in this experiment was guinea pig brain. The animals used weighted 400-600 g. The tissue was homogenized using a Polytron in a solution of 50 mM Tris, pH 7.5. The final concentration of tissue in the homogenization buffer was 10% w/v. The homogeneates were centrifuged at 1000×g for 10 min. in order to remove clumps of tissue and debris. The resulting supernatants were then centrifuged at 50,000×g for 20 min. in order to sediment the membranes, which were next washed 3 times in homogenization buffer (50,000×g for 20 min. each). The membranes were frozen and stored at -70° C. until needed.
All compounds to be tested were dissolved in DMSO and then diluted into the binding buffer (50 mM Tris, pH 7.5) such that the final concentration was 2 μg/mL with 0.1% DMSO. Membranes were then added (400 μg of protein) to the reaction tubes. The reaction was started by the addition of 3 nM [^3 H]R-α-methylhistamine (8.8 CVmmol) or [^3 H]-N-methylhistamine (80 Cvmmol) and incubated at 30° for 30 min.

H3 receptors = H3 receptors in rat brain; cited from earlier work
[1] = guinea pig brain membranes, [3H]R-α-methylhistamine or [3H]-N-methylhistamine, 30°, 30 min, read-out: H3 Binding Ki

T1 sequence (Q9JI35 whole entry): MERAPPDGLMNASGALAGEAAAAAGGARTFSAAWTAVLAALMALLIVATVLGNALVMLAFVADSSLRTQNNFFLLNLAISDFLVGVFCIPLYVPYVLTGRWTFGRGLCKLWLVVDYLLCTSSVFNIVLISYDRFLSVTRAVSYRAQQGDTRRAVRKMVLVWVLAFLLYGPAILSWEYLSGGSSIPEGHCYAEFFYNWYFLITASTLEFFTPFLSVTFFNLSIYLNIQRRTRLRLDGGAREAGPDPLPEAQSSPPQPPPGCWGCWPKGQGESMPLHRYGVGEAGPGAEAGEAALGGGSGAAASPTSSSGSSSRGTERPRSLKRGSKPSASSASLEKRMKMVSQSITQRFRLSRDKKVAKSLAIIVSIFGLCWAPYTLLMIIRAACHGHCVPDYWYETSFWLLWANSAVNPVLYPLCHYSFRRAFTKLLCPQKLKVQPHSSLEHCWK

| SMILES | Ki (H3 receptor; [1]) | other results |
| --- | --- | --- |
| CC1(C)NCCC1c1c[nH]cn1 (stereo not shown) | 66 nM | – |
| c1ccc(C[C@@H]2NCC[C@H]2c2c[nH]cn2)cc1 (relative stereo) | – | inhibition at 2 µg/mL (H3 receptor): 7% |
| CCCCC[C@@H]1CNC[C@H]1c1c[nH]cn1 (relative stereo) | 450 nM | – |
| CN1CCC(Cc2c[nH]cn2)C1 (stereo not shown) | 3 nM | – |
| c1ccc(CC[C@@H]2NCC[C@@H]2c2c[nH]cn2)cc1 (relative stereo) | 600 nM | – |
| CCCCC[C@@H]1CNC[C@@H]1c1c[nH]cn1 (relative stereo) | – | Ki (H3 receptor): 77 nM |
| c1nc(CC2CCCN2)c[nH]1 (stereo not shown) | 110 nM | – |
| CC1(C)CNCC1c1c[nH]cn1 (stereo not shown) | – | inhibition at 2 µg/mL (H3 receptor; at a concentration of 2 μg/mL, guinea pig brain membranes): 68% |
| NCCc1c[nH]cn1 [histamine] | – | maximum inhibition of release (H3 receptors): approximately 60% |

Now from value to compound, other results behind:

| Ki (H3 receptor; [1]) | SMILES | other results |
| --- | --- | --- |
| 8 nM | C[C@@H]1CNC[C@H]1c1cnc[nH]1 (relative stereo) | – |
| 76 nM | C[C@@H]1C[C@@H](c2c[nH]cn2)CN1 (relative stereo) | – |
| 7 nM | C[C@@H]1NC[C@H]1c1c[nH]cn1 (relative stereo) | – |
| 150 nM | CC[C@@H]1CNC[C@H]1c1c[nH]cn1 (relative stereo) | – |
| 6 nM | C[C@@H]1NCC[C@H]1c1c[nH]cn1 (relative stereo) | – |
| 170 nM | CC1(c2c[nH]cn2)CCNC1 (stereo not shown) | – |
| 3 nM | c1nc(C2CCNC2)c[nH]1 (stereo not shown) | – |

From patent publication US5463074A, “Imidazolyl or imidazoylalkyl substituted with a four or five membered nitrogen containing heterocyclic ring” (Schering Corporation, priority 1994, dated 1995)
